According to BindingDB's records for doi:10.1016/s0960-894x(02)00988-5 (Merck Research Laboratories, 2003):

How the values were obtained:
[1] = Inhibition over 48 hr of BAL strain HIV infrction of HeLa Magi cells expressing CCR5
[2] = as above; remark: listed apart in the source

Row | SMILES | IC50 [1] [nM] | IC50 [2] [nM]
1 | CCCN(c1nccc(C(F)(F)F)n1)C1CCN(C[C@H]2CN([C@H](CC3CCC3)C(=O)O)C[C@@H]2c2cccc(F)c2)CC1 [(R)-3-Cyclobutyl-2-((3S,4S)-3-(3-fluoro-phenyl)-4-{4-[propyl-(4-trifluoromethyl-pyrimidin-2-yl)-amino]-piperidin-1-ylmethyl}-pyrrolidin-1-yl)-propionic acid] | 450 | –
2 | CCCN(c1ncccn1)C1CCN(C[C@H]2CN([C@@H](C(=O)O)C3CCCCC3)C[C@@H]2c2cccc(F)c2)CC1 [(R)-Cyclohexyl-{(3S,4S)-3-(3-fluoro-phenyl)-4-[4-(propyl-pyrimidin-2-yl-amino)-piperidin-1-ylmethyl]-pyrrolidin-1-yl}-acetic acid] | 33 | –
3 | CCCN(c1ncc(C(F)(F)F)cn1)C1CCN(C[C@H]2CN([C@H](CC3CCC3)C(=O)O)C[C@@H]2c2cccc(F)c2)CC1 [(R)-3-Cyclobutyl-2-((3S,4S)-3-(3-fluoro-phenyl)-4-{4-[propyl-(5-trifluoromethyl-pyrimidin-2-yl)-amino]-piperidin-1-ylmethyl}-pyrrolidin-1-yl)-propionic acid] | 100 | –
4 | CCCN(c1ncccn1)C1CCN(C[C@H]2CN([C@@H](C(=O)O)C3CCCCC3)C[C@@H]2c2ccccc2)CC1 [(R)-2-cyclohexyl-2-((3S,4S)-3-phenyl-4-((4-(propyl(pyrimidin-2-yl)amino)piperidin-1-yl)methyl)pyrrolidin-1-yl)acetic acid] | – | 33
5 | CCCN(c1ccccn1)C1CCN(C[C@H]2CN([C@@H](C(=O)O)C3CCCCC3)C[C@@H]2c2ccccc2)CC1 [(R)-Cyclohexyl-{(3S,4S)-3-phenyl-4-[4-(propyl-pyridin-2-yl-amino)-piperidin-1-ylmethyl]-pyrrolidin-1-yl}-acetic acid] | – | 100
6 | CCCN(c1ccccn1)C1CCN(C[C@H]2CN(C(=O)N3CCCC3)C[C@@H]2c2ccccc2)CC1 [{(3S,4S)-3-Phenyl-4-[4-(propyl-pyridin-2-yl-amino)-piperidin-1-ylmethyl]-pyrrolidin-1-yl}-pyrrolidin-1-yl-methanone] | – | 300
7 | CCCN(c1ncccn1)C1CCN(C[C@H]2CN([C@H](CC3CCC3)C(=O)O)C[C@@H]2c2cccc(F)c2)CC1 [(R)-3-cyclobutyl-2-((3S,4S)-3-(3-fluorophenyl)-4-((4-(propyl(pyrimidin-2-yl)amino)piperidin-1-yl)methyl)pyrrolidin-1-yl)propanoic acid] | 11 | –
8 | C=CCN(c1cccnc1)C1CCN(C[C@H]2CN(C(=O)C3CCCCC3)C[C@@H]2c2ccccc2)CC1 [{(3S,4S)-3-[4-(Allyl-pyridin-3-yl-amino)-piperidin-1-ylmethyl]-4-phenyl-pyrrolidin-1-yl}-cyclohexyl-methanone] | 12 | –
9 | CCCN(c1nccc(OC)n1)C1CCN(C[C@H]2CN([C@H](CC3CCC3)C(=O)O)C[C@@H]2c2cccc(F)c2)CC1 [(R)-3-Cyclobutyl-2-((3S,4S)-3-(3-fluoro-phenyl)-4-{4-[(4-methoxy-pyrimidin-2-yl)-propyl-amino]-piperidin-1-ylmethyl}-pyrrolidin-1-yl)-propionic acid] | 100 | –
10 | CCN(c1ncccn1)C1CCN(C[C@H]2CN([C@H](CC3CCC3)C(=O)O)C[C@@H]2c2cccc(F)c2)CC1 [(R)-3-Cyclobutyl-2-[(3S,4S)-3-[4-(ethyl-pyrimidin-2-yl-amino)-piperidin-1-ylmethyl]-4-(3-fluoro-phenyl)-pyrrolidin-1-yl]-propionic acid] | 100 | –
11 | CCCN(c1ccncn1)C1CCN(C[C@H]2CN([C@H](CC3CCC3)C(=O)O)C[C@@H]2c2cccc(F)c2)CC1 [(R)-3-Cyclobutyl-2-{(3S,4S)-3-(3-fluoro-phenyl)-4-[4-(propyl-pyrimidin-4-yl-amino)-piperidin-1-ylmethyl]-pyrrolidin-1-yl}-propionic acid] | – | 33
12 | CCCN(c1cccnc1)C1CCN(C[C@H]2CN([C@@H](C(=O)O)C3CCCCC3)C[C@@H]2c2ccccc2)CC1 [(R)-Cyclohexyl-{(3S,4S)-3-phenyl-4-[4-(propyl-pyridin-3-yl-amino)-piperidin-1-ylmethyl]-pyrrolidin-1-yl}-acetic acid] | 33 | –
13 | CCCN(c1cncnc1)C1CCN(C[C@H]2CN([C@H](CC3CCC3)C(=O)O)C[C@@H]2c2cccc(F)c2)CC1 [(R)-3-Cyclobutyl-2-{(3S,4S)-3-(3-fluoro-phenyl)-4-[4-(propyl-pyrimidin-5-yl-amino)-piperidin-1-ylmethyl]-pyrrolidin-1-yl}-propionic acid] | 11 | –
14 | CCCN(c1ccccn1)C1CCN(C[C@H]2CN(C(=O)c3ccccc3Cl)C[C@@H]2c2ccccc2)CC1 [(2-Chloro-phenyl)-{(3S,4S)-3-phenyl-4-[4-(propyl-pyridin-2-yl-amino)-piperidin-1-ylmethyl]-pyrrolidin-1-yl}-methanone] | – | 300
15 | CCCN(c1ccccn1)C1CCN(C[C@H]2CN(C(=O)C3CCC3)C[C@@H]2c2ccccc2)CC1 [cyclobutyl((3S,4S)-3-phenyl-4-((4-(propyl(pyridin-2-yl)amino)piperidin-1-yl)methyl)pyrrolidin-1-yl)methanone] | – | 300
16 | C=CCN(c1ccc(C(F)(F)F)cn1)C1CCN(C[C@H]2CN(C(=O)C3CCCCC3)C[C@@H]2c2ccccc2)CC1 [((3S,4S)-3-{4-[Allyl-(5-trifluoromethyl-pyridin-2-yl)-amino]-piperidin-1-ylmethyl}-4-phenyl-pyrrolidin-1-yl)-cyclohexyl-methanone] | 37 | –
17 | CCCN(c1ncc(F)cn1)C1CCN(C[C@H]2CN([C@H](CC3CCC3)C(=O)O)C[C@@H]2c2cccc(F)c2)CC1 [(R)-3-Cyclobutyl-2-((3S,4S)-3-(3-fluoro-phenyl)-4-{4-[(5-fluoro-pyrimidin-2-yl)-propyl-amino]-piperidin-1-ylmethyl}-pyrrolidin-1-yl)-propionic acid] | 33 | –
18 | CCCN(c1ccccn1)C1CCN(C[C@H]2CN(C(=O)C3CCCCC3)C[C@@H]2c2ccccc2)CC1 [cyclohexyl((3S,4S)-3-phenyl-4-((4-(propyl(pyridin-2-yl)amino)piperidin-1-yl)methyl)pyrrolidin-1-yl)methanone] | – | 100
19 | C=CCN(c1ccccn1)C1CCN(C[C@H]2CN(C(=O)C3CCCCC3)C[C@@H]2c2ccccc2)CC1 [{(3S,4S)-3-[4-(Allyl-pyridin-2-yl-amino)-piperidin-1-ylmethyl]-4-phenyl-pyrrolidin-1-yl}-cyclohexyl-methanone] | 11 | –
20 | O=C(O)[C@@H](CC1CCC1)N1C[C@H](CN2CCC(N(CC3CC3)c3ncccn3)CC2)[C@@H](c2cccc(F)c2)C1 [(R)-3-Cyclobutyl-2-[(3S,4S)-3-[4-(cyclopropylmethyl-pyrimidin-2-yl-amino)-piperidin-1-ylmethyl]-4-(3-fluoro-phenyl)-pyrrolidin-1-yl]-propionic acid] | 11 | –
21 | O=C(C1CCCCC1)N1C[C@H](CN2CCC(N(CC3CC3)c3ccccn3)CC2)[C@@H](c2ccccc2)C1 [Cyclohexyl-{(3S,4S)-3-[4-(cyclopropylmethyl-pyridin-2-yl-amino)-piperidin-1-ylmethyl]-4-phenyl-pyrrolidin-1-yl}-methanone] | – | 33
